Values of other authors, collected in patent US20090214643A1, “IMPROVED PHARMACOKINETIC PROFILE OF BETA-ADRENERGIC INVERSE AGONISTS FOR THE TREATMENT OF PULMONARY AIRWAY DISEASES” (priority 2005, published 2009).

Experiments:
[1] = single dose, Corgard product insert

Question: Which “average Tmax (time to peak serum level)” value [1] does the source give for CC(C)(C)NCC(O)COc1cccc2c1CC(O)C(O)C2 (stereo not drawn) [nadolol] here?
Answer: 3.5 h

Question: And the “response of asthmatics to beta blocker administration” value (asthmatics; medical literature accounts)?
Answer: serious pulmonary function reduction

Question: With CC(C)NCC(O)c1ccc2ccccc2c1 (stereo not drawn) [pronethalol] as the molecule, how does the “effect on airway function observed in asthmatics” value (asthmatics; literature 1962, 1964) read?
Answer: reduction in airway function
